The values below come from patent US9907806B2, “Pharmaceutical composition for emergency contraception” (Bayer Intellectual Property GmbH, priority 2009, dated 2018).

Several values for one entry are separate records, joined by “and”; a condition that tells them apart may be missing. Equal values may be shown once. Read-outs that look alike come from different tables or passages of the source.

For assay [1], the system named is ovulation. Conditions: 21-day use; cited from earlier work.
Assay [2] concerns adult female rats with normal cycles. In words: Ovulation inhibition test on rats. The settings on record: 5 animals; for Ovulation count, absolute / Ovulation count, mean: 4 days. It is filed as in vivo, rat. The procedure: The efficacy of the composition according to the invention was ascertained by ovulation-inhibiting studies carried out on adult female rats with normal cycles. First, using 5 dose groups plus placebo (0.003 mg, 0.01 mg, 0.03 mg, 0.1 mg and 0.3 mg), the limit dose of levonorgestrel (LNG) was determined at which there is still no ovulation-inhibiting effect.
With the dose of LNG thus determined (0.01 mg), a comparison test was then carried out in which the ovulation-inhibiting effect of LNG, placebo, meloxicam, piroxicam, and the combination of LNG and meloxicam, was compared against the composition, according to the invention, of LNG plus piroxicam.
With the onset of the metestrus, 5 animals in each case were treated on four successive days with (a) placebo, (b) 0.01 mg of LNG, (c) 2 mg of piroxicam, (d) 0.01 mg of LNG and 2 mg of piroxicam, (e) 2 mg of meloxicam, and (f) […] of LNG and 3 mg of meloxicam. LNG was given by s.c. administration, and the COX inhibitor was given orally (p.o.).
In the following test, female rats weighing between 200 and 220 g were used. The animals were housed in macrolon cages in rooms under controlled lighting conditions (12 hours of darkness, 12 hours of light), were fed a standard diet and had access to water ad libitum.
Levonorgestrel was dissolved in benzyl benzoate/castor oil (1+4 v/v), and the daily dose was given by s.c. administration in a volume of 1 ml/kg body weight.
The COX inhibitors were suspended in a carrier liquid (85 mg of MyrjR53 (2-hydroxyethyl octadecanoate; CAS no. 9004-99-3) in 100 ml of 0.9% w/v NaCl solution), and the daily dose corresponding to the treatment group was administered orally in a volume of 2 ml/kg body weight.
(§1) Two cycles were monitored using vaginal smears before the start of the test. Only animals with a regular 4-day cycle were entered in the test. The allocation to the treatment groups was randomized. Starting in the metestrus, the test substance was administered for 4 days (days 1-4) and the cycle continued to be monitored. On day 3 of treatment (proestrus), a retrobulbar blood sample was taken at 9.00 h and from 18.30 h in order to determine the luteinizing hormone (LH). On day 4 (after administration), the animals with vaginal smears showing them in estrus or metestrus underwent unilateral ovariectomy under anaesthetic. Crush preparations were made from the tubes and were examined under a microscope for the presence of oocytes. On day 5, all the animals (the intact animals and those having undergone unilateral ovariectomy) were sacrificed, and the tubes of the animals in estrus and metestrus were prepared and examined in the same way. […] By contrast, the COX inhibitors on their own provide only partial suppression of ovulation.
(§2) The test set-up corresponds to the one described in Example 1.

The test system is the same in assay [3]. In words: Ovulation inhibition test on rats. It is filed as in vivo, rat.
The subject of assay [4] is ovulation. Conditions: cited from earlier work.
The test system of assay [5] is ovulated cumulus-oocyte complexes. As to the kind of experiment: In vitro fertilization rate of ovulated cumulus-oocyte complexes after in vivo treatment (Example 3). The settings on record: n=5 animals. Further details: species or system mice. The source says:
Substances can influence fertility by reducing the fertilizability of oocytes or cumulus-oocyte complexes. In order to investigate such effects, substances can be administered in vivo and, after ovulation from cumulus/oocyte complexes, can be subjected to in vitro fertilization. The in vitro fertilization rate, with no further test substance being added, allows conclusions to be drawn regarding the in vivo effects of the test substances.
Immature female mice (strain: B6D2F1, Charles River, Suelzfeld, age: 19-25 days) were housed in macrolon cages in rooms under controlled lighting conditions (12 hours of darkness, 12 hours of light), were fed a standard diet and had access to water ad libitum. The mice were primed with PMSG (Pregnant Mare Serum Gonadotropin) (10 IU/animal i.p.). After 48 hours, an ovulation-triggering stimulus was induced in the animals by administration of 10 IU/animal i.p. The COX inhibitors were suspended in a carrier liquid (85 mg MyrjR53 (2-hydroxyethyl octadecanoate; CAS no. 9004-99-3) in 100 ml of 0.9% w/v NaCl solution), and the daily dose corresponding to the treatment group (n=5 animals per group) was administered in a volume of 0.2 ml p.o. 8 hours before and together with hCG. Fourteen hours after hCG administration, the animals were sacrificed. Ovulated oocytes and cumulus-oocyte complexes were recovered from the ovarian bursa and/or oviduct and subjected to in vitro fertilization, with a sperm count of 40,000 sperm/0.5 ml for 1 hour being used for the fertilization. Twenty-four hours after incubation with the sperm, the number of fertilized oocytes was established and the percentage fertilization rate determined.

The subject of assay [6] is serum progesterone concentration. As to the kind of experiment: Serum progesterone concentration in proestrus at 19.00 h (Example 2). It is filed as in vivo, rat. The procedure: This can be seen as an indicator of the efficiency of the LH peak in changing from a predominantly estrogen-producing ovary (before the LH peak) to a predominantly progesterone-producing ovary (caused by the LH peak). […] By contrast, the literature describes that other COX inhibitors have no effect on the hormonal levels [Pall et al.; Human Reproduction vol. 16, no. 7, pp 1323-1328 (2001); Bata et al., J Clin Pharmacol (2006) 46:925-932]. […] The ovulation rates in the combination with 0.01 mg of levonorgestrel and 0.5 mg of piroxicam (31 oocytes), with 1 mg of piroxicam (19 oocytes) and with 2 mg of piroxicam (0 oocytes) were much lower here and, in the highest dose, even led to complete anovulation (10 animals per group).
as §1, §2

Where [7] appears, read: 25 mg on 9 successive days (Pall et al.).

For `C#C[C@]1(OC(C)=O)CC[C@H]2[C@@H]3CCC4=CC(=NO)CC[C@@H]4[C@H]3CC[C@@]21CC` (mixture of isomers) [Norgestimate (NGM), Norgestimate], the “minimal dose for inhibition of ovulation, p.o. dose/day” value in the assay with ovulation [1] was 180-250 μg^31.

Take `CC(=O)O[C@]1(C(C)=O)CC[C@H]2[C@@H]3C=C(Cl)C4=CC(=O)[C@@H]5C[C@@H]5[C@]4(C)[C@H]3CC[C@@]21C` [Cyproterone acetate (CPA), Cyproterone acetate]: the “minimal dose for inhibition of ovulation, p.o. dose/day” value in the assay with ovulation [1] is 1 mg^33. For the compound `C#C[C@]1(O)CC[C@H]2[C@@H]3CCC4=CCCC[C@@H]4[C@H]3C(=C)C[C@@]21CC` [Desogestrel (DSG), Desogestrel], the “minimal dose for inhibition of ovulation, p.o. dose/day” value in the assay on ovulation [1] was 60 μg^28. Regarding `C[C@]12CCC3=C4CCC(=O)C=C4CC[C@H]3[C@@H]1CC[C@@]2(O)CC#N` [Dienogest (DNG), Dienogest], the “minimal dose for inhibition of ovulation, p.o. dose/day” value in the assay on ovulation [1] is listed as 1-2 mg^29. As to `C[C@]12CCC(=O)C=C1[C@@H]1C[C@@H]1[C@H]1[C@@H]3[C@@H]4C[C@@H]4[C@@]4(CCC(=O)O4)[C@@]3(C)CC[C@@H]12` [Drospirenone (DRSP), Drospirenone], the “minimal dose for inhibition of ovulation, p.o. dose/day” value in the assay on ovulation [1] was 2 mg^33. With `CC(=O)[C@H]1CC[C@H]2[C@@H]3C=CC4=CC(=O)CC[C@@]4(C)[C@@H]3CC[C@]12C` [Dydrogesterone], the “minimal dose for inhibition of ovulation, p.o. dose/day” value with ovulation [1] is >30 mg^33.

In the case of `C#C[C@]1(O)CC[C@H]2[C@@H]3CCC4=C[C@@H](O)CC[C@@H]4[C@H]3CC[C@@]21C` [Ethynodiol], the “minimal dose for inhibition of ovulation, p.o. dose/day” value in the assay on ovulation [1] is given as 2 mg33. Take `C#C[C@]1(O)C=C[C@H]2[C@@H]3CCC4=CC(=O)CC[C@@H]4[C@H]3CC[C@@]21CC` [Gestodene (GSD), Gestodene]: the “minimal dose for inhibition of ovulation, p.o. dose/day” value in the assay on ovulation [1] was 30 µg and 40 to 50 µg. Take `C#C[C@]1(O)CC[C@H]2[C@@H]3CCC4=CC(=O)CC[C@@H]4[C@H]3CC[C@@]21CC` [LNG, levonorgestrel]: in assay [2] (LNG 0.01 mg s.c.), the “Ovulation count, absolute” value stood at 35 and the “Ovulation count, mean” value is recorded as 7.0 ± 2.0. The compound also came in with an oocytes ovulated in assay [3] (Example 2, LNG on its own (0.01 mg s.c.), 10 animals per group) of 68 oocytes. Also, the oocytes ovulated in assay [3] (treatment group (b), 0.1 mg of levonorgestrel, 5 animals) came to 35 oocytes. In the case of `C#C[C@]1(O)CC[C@H]2[C@@H]3CCC4=CCCC[C@@H]4[C@H]3CC[C@@]21C` [Lynestrenol], in the assay with ovulation [1], the “minimal dose for inhibition of ovulation, p.o. dose/day” value is 2 mg^33. Take `CC(=O)[C@@]1(C)CC[C@H]2[C@@H]3C=C(C)C4=CC(=O)CC[C@]4(C)[C@H]3CC[C@@]21C` [Medrogestone]: the “minimal dose for inhibition of ovulation, p.o. dose/day” value with ovulation [1] was 10 mg^33. As for `CC(=O)O[C@]1(C(C)=O)CC[C@H]2[C@@H]3C[C@H](C)C4=CC(=O)CC[C@]4(C)[C@H]3CC[C@@]21C` [Medroxyprogesterone acetate (MPA), Medroxyprogesterone acetate], the “minimal dose for inhibition of ovulation, p.o. dose/day” value with ovulation [1] is 10 mg^33.

As to `Cc1cnc(NC(=O)C2=C(O)c3ccccc3S(=O)(=O)N2C)s1` [Meloxicam, meloxicam], in assay [2] (COX inhibitor 2 mg p.o.), the “Ovulation count, absolute” value is recorded as 28 and the “Ovulation count, mean” value is listed as 5.6 ± 2.5. In addition, the delay in ovulation in the assay with ovulation [4] (30 mg per patient and day on 5 successive days (Bata et al.)) was 5 days. Consider `CC(=O)O[C@]1(C(C)=O)CC[C@H]2[C@@H]3C=C(C)C4=CC(=O)CC[C@@H]4[C@H]3CC[C@@]21C` [Nomegestrol acetate (NOMAc), Nomegestrol acetate], for which, in the assay with ovulation [1], the “minimal dose for inhibition of ovulation, p.o. dose/day” value is 2.5 mg^32. As for `C#C[C@]1(OC(C)=O)CC[C@H]2[C@@H]3CCC4=CC(=O)CC[C@@H]4[C@H]3CC[C@@]21C` [Norethisterone acetate (NETA), Norethisterone acetate], the “minimal dose for inhibition of ovulation, p.o. dose/day” value in the assay on ovulation [1] was 0.5 mg^33.

Regarding `C#C[C@]1(O)CC[C@H]2[C@@H]3CCC4=CC(=O)CC[C@@H]4[C@H]3CC[C@@]21C` [Norethisterone], in the assay on ovulation [1], the “minimal dose for inhibition of ovulation, p.o. dose/day” value is listed as 0.5 mg^33.

On to `CN1C(C(=O)Nc2ccccn2)=C(O)c2ccccc2S1(=O)=O` [Piroxicam, piroxicam], for which, in assay [2] (COX inhibitor 2 mg p.o.), the “Ovulation count, absolute” value was 9. In addition, the “Ovulation count, mean” value in assay [2] (COX inhibitor 2 mg p.o.) worked out at 1.8 ± 0.4. Besides, the oocytes ovulated in assay [2] (treatment group (c), 2 mg piroxicam on its own) is listed as 9 oocytes; in assay [3] (1 mg piroxicam alone), 28 oocytes; in assay [3] (Example 2, 0.5 mg piroxicam p.o., 10 animals per group), 85 oocytes; in assay [3] (Example 2, 1 mg piroxicam p.o., 10 animals per group), 56 oocytes; in assay [3] (Example 2, 2 mg piroxicam p.o., 10 animals per group), 30 oocytes. Further, the “Fertilization rate (% ± SD)” value was 19 ± 8% in assay [5] (2 × 0.15 mg/animal p.o.), 14 ± 18% in assay [5] (2 × 0.3 mg/animal p.o.) and 12 ± 7% in assay [5] (2 × 0.5 mg/animal p.o.). Besides, the “Progesterone in proestrus at 19.00 h—mean ± SD (n = 10)” value in assay [6] (0.5 mg p.o.) stood at 237 ± 49; in assay [6] (1 mg p.o.) it was 183 ± 67; in assay [6] (2 mg p.o.), 122 ± 94. As for `CC(=O)[C@H]1CC[C@H]2[C@@H]3CCC4=CC(=O)CC[C@]4(C)[C@H]3CC[C@]12C` [Progesterone], the “minimal dose for inhibition of ovulation, p.o. dose/day” value in the assay on ovulation [1] is reported as 300 mg^33.

With `CCC(=O)[C@@]1(C)CC[C@H]2[C@@H]3CCC4=CC(=O)CCC4=C3CC[C@@]21C` [Promegestone], the “minimal dose for inhibition of ovulation, p.o. dose/day” value in the assay with ovulation [1] was 0.5 mg^33. `C[C@H](O)C(=O)[C@@]1(C)CC[C@H]2[C@@H]3CCC4=CC(=O)CCC4=C3CC[C@@]21C` [Trimegestone]: the “minimal dose for inhibition of ovulation, p.o. dose/day” value with ovulation [1] is given as 0.5 mg^33. For `CS(=O)(=O)c1ccc(C2=C(c3ccccc3)C(=O)OC2)cc1` [rofecoxib], in the assay with ovulation [4] (setting [7]), the delay in ovulation entry was “over 48 hours” and the “patients with delay in ovulation of over 48 hours” value is 4 of 6.
